Assay results: US20180117042A1, “METHODS FOR TREATING RESPIRATORY SYNCYTIAL VIRUS INFECTION” (ALIOS BIOPHARMA, INC., priority 2016, published 2018)

Assays:
[1] = system: RSV-A Memphis 37b challenge virus; assay: human RSV challenge model in healthy adults, viral load in nasal washes; assay type: in vivo
Method: Healthy adults received one of the following dosing regimens or placebo over 5 days using the human RSV challenge model.
Patients were given an intranasal inoculation of RSV-A Memphis 37b challenge virus. Administration of compound (A), or a pharmaceutically acceptable salt thereof, began approximately 12 hours after confirmation of RSV infection as determined by the presence of RSV RNA in nasopharyngeal washes. The test compound was administered as an oral-liquid suspension, wherein the drug vehicle was methyl cellulose and sterile water. The placebo was the drug vehicle without the test compound. Second dosages were started 12 hours after administration of the first dosage, and the remaining second dosages were provided in approximate 12 hour intervals. Nasal washes were collected twice daily approximately 36 to 48 hours after RSV inoculation until Day 12. Viral load was detected and quantified from the aliquots of the nasal wash samples using tissue infectivity plaque assays and PCR. (See DeVincenzo, J. P., et al., Am. J. Respir. Crit. Care. Med. (2010) 182(10):1305-1314) Patients returned for two follow-up visits on Day 16 (±2 days) and Day 28 (±2 days) post-challenge inoculation.

[2] = SAD/MAD study in pediatric patients hospitalized with RSV infection: safety; assay type: in vivo, human; conditions: infants hospitalized with RSV, interim blinded results
Method: One hundred fifty eight otherwise healthy pediatric patients hospitalized with RSV infection were recruited in a randomized, double-blind, placebo-controlled, SAD (single ascending dose) and MAD (multiple ascending dose) study. The patients were randomized into nine SAD, MAD regimens. Subjects not given the placebo were administered lumicitabine or compound (A), a prodrug of the nucleoside analog AL-8112 (otherwise referenced herein as compound (C), the triphosphate of which is a potent inhibitor of the RSV polymerase. The cohort size and dose for the first SAD cohort was prespecified. The makeup of all other cohorts was determined by an Independent Data Monitoring Committee (IDMC) that regularly reviewed data. FIG. 2 provides the single and multiple doses used in the study as well as approximate numbers of subjects dosed. Safety and PK data were collected for 7 (SAD) and 28 (MAD) days post randomization. PK was analyzed using non-linear mixed effect modeling. Part 1 (single ascending dose): Patients received a single dose of 1 of 4 ascending doses of compound (A), (1.37 mg/kg, 4.1 mg/kg, 12 mg/kg and 25 mg/kg) or placebo. Patients received compound (A) for a 7-day consecutive period. Part 2 (multiple ascending dosage): Patients received a loading dosage followed by nine maintenance dosages, or placebo. Patients received compound (A) for a 5-day consecutive period. […]

[3] = SAD/MAD study in pediatric patients hospitalized with RSV infection: plasma PK with PK modeling; assay type: in vivo, human
Method: One hundred fifty eight otherwise healthy pediatric patients hospitalized with RSV infection were recruited in a randomized, double-blind, placebo-controlled, SAD (single ascending dose) and MAD (multiple ascending dose) study. The patients were randomized into nine SAD, MAD regimens. Subjects not given the placebo were administered lumicitabine or compound (A), a prodrug of the nucleoside analog AL-8112 (otherwise referenced herein as compound (C), the triphosphate of which is a potent inhibitor of the RSV polymerase. The cohort size and dose for the first SAD cohort was prespecified. The makeup of all other cohorts was determined by an Independent Data Monitoring Committee (IDMC) that regularly reviewed data. FIG. 2 provides the single and multiple doses used in the study as well as approximate numbers of subjects dosed. Safety and PK data were collected for 7 (SAD) and 28 (MAD) days post randomization. PK was analyzed using non-linear mixed effect modeling.
Part 1 (single ascending dose): Patients received a single dose of 1 of 4 ascending doses of compound (A), (1.37 mg/kg, 4.1 mg/kg, 12 mg/kg and 25 mg/kg) or placebo. Patients received compound (A) for a 7-day consecutive period.
Part 2 (multiple ascending dosage): Patients received a loading dosage followed by nine maintenance dosages, or placebo. Patients received compound (A) for a 5-day consecutive period. The maintenance dosages were administered twice daily. In the twice daily dosage regimen, the first maintenance dosage was given 8-18 hours after the loading dosage (dosage 1).
A PK model was developed integrating adult and pediatric data to aid calculation of PK parameters and project efficacious doses. For pediatric dose and exposure projections three age cohorts were used: 1-<2 months, 2-<6 month and 6-<12 months. Apparent clearance increased with dose, creatinine clearance and body weight (using allometric principles). Maturation functions were applied for age dependent changes in Carboxylesterase 1 abundance on bioavailability and kidney function on renal elimination. […]

RSV = conditions: infants and young children with severe RSV LRTI; cited from earlier work
[4] = half-life of the triphosphate compound (B); conditions: triphosphate formed inside the cell

For `CC(C)C(=O)OC[C@@]1(CCl)O[C@@H](n2ccc(N)nc2=O)[C@H](F)[C@@H]1OC(=O)C(C)C` [compound (A), Lumicitabine], the “RSV viral load compared to the placebo” value ([1]; all regimens (750/150 mg, 750/500 mg, 375 mg), oral, 5 days, FIG. 1) was “marked reduction”, the “RSV RNA” value ([1]; at Day 12, all treated patients) was “undetectable” and the “RSV RNA” value ([1]; at Day 16 follow-up) was “undetectable”. The “RSV RNA” value ([1]; at Day 28 follow-up) was “undetectable”, the laboratory abnormalities ([1]; healthy adults, 5 days dosing) was “no clinically significant laboratory abnormalities” and the “treatment discontinuation during the study” value ([1]; healthy adults, 5 days dosing) was “no patient discontinued treatment”. The “reduction of plaque forming units equivalents (PFUe/mL)” value ([1]; patients who received 750 mg on Day 1, within the first 24 hours) was “multi-log reduction”, the tolerability ([2]; multiple doses up to 60/40 mg/kg) was “well tolerated” and the tolerability ([2]; single doses up to 25 mg/kg) was “well tolerated”.
With `Nc1ccn([C@@H]2O[C@@](CO)(CCl)[C@@H](O)[C@H]2F)c(=O)n1` [compound (C)] the AUC(0-t) ([3]; human, plasma, doses of 40/20 mg/kg and 60/40 mg/kg compound (A), actual concentrations with PK modeling (FIG. 3), read-out: plasma AUC0-24) was 8000 to 20000 ng·h/mL, the accumulation ([3]; multiple dosing) was “no accumulation” and the “plasma exposures with increasing ALS-8176 doses (dose proportionality)” value ([3]; oral) was “less than dose proportional”.
For `NC(=O)c1ncn([C@@H]2O[C@H](CO)[C@@H](O)[C@H]2O)n1` [aerosolized ribavirin, ribavirin], the “clinical benefit of treatment” value (RSV) is listed as “failed to impart any clinically significant benefits”.
`Nc1ccn([C@@H]2O[C@](CCl)(COP(=O)(O)OP(=O)(O)OP(=O)(O)O)[C@@H](O)[C@H]2F)c(=O)n1` [Compound (B)] gave a half-life [4] of about 17.6 h.
